Measurements: US8962596B2 (Array BioPharma Inc., priority 2010, dated 2015)
Structures can show the parent of a compound that is named as a salt.

How the values were obtained:
Assay type in all cases: biochemical
Human Tyk2 kinase domain = target: T1, Human Tyk2 kinase domain (Homo sapiens, UniProt P29597); assay: Tyk2 Inhibition Assay (Omnia kinase fluorescence peptide substrate assay); conditions: averaged IC50 ranges; assay of Example A; 10 μM (Km app) or 1 mM ATP, 2 nM Tyk2
T1 construct: comprising amino acids 886 to 1187 with 10 additional histidine residues; 10xHis (histidine tag) (C, cleaved yes); made in house
T1 sequence (P29597 886-1187): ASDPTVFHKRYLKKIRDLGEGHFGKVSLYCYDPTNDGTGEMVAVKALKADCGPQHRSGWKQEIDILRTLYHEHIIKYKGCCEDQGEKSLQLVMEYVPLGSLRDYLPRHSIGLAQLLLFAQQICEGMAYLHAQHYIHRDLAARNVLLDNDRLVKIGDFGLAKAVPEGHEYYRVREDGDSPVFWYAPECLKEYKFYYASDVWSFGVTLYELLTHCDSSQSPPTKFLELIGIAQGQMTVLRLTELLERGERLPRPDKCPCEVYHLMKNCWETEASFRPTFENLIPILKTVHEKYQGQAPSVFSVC
Procedure, shortened: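 2 nM His-tag-cleaved kinase domain (aa 886–1187) with 8 μM Omnia Y12 peptide, 10 μM (Km app) or 1 mM ATP, pH 7.4 HEPES/10 mM MgCl2, 2% DMSO. Fluorescence (ex 360/em 485 nm) every 50 s for 45 min; IC50 from 4-parameter fit of POC, top dose 10 μM.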

JAK1 = target: T2, JAK1 (Homo sapiens, UniProt P23458); assay: JAK1 Inhibition Assay (Omnia kinase fluorescence peptide substrate assay); conditions: averaged IC50 ranges; assay of Example B; 40 μM (Km app) or 1 mM ATP, 15 nM JAK1
T2 construct: purchased Invitrogen Corporation, Carlsbad, Calif; PV4775

JAK2 = target: T3, JAK2 (Homo sapiens, UniProt O60674); assay: JAK2 Inhibition Assay (Omnia kinase fluorescence peptide substrate assay); conditions: averaged IC50 ranges; assay of Example C; 25 μM (Km app) or 1 mM ATP, 5 nM JAK2
T3 construct: purchased Invitrogen Corporation, Carlsbad, Calif; PV4288
Procedure, shortened: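 A 10-point, 3-fold compound series (top 10 μM, 2% DMSO) was tested against 5 nM JAK2 with 10 μM Omnia Y7 substrate and either 1 mM or 25 μM (Km app) ATP. Buffer: pH 7.4 HEPES, MgCl2, Triton X-100, DTT. Sox fluorescence was monitored kinetically for 45 min; IC50 is the concentration giving 50 POC on a 4-parameter fit.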

JAK3 = target: T4, JAK3 (Homo sapiens, UniProt P52333); assay: JAK3 Inhibition Assay (Omnia kinase fluorescence peptide substrate assay); conditions: averaged IC50 ranges; assay of Example D; 10 μM (Km app) or 1 mM ATP, 2.5 nM JAK3
T4 construct: purchased Invitrogen Corporation, Carlsbad, Calif; PV4080
T4 sequence (P52333 1-1124): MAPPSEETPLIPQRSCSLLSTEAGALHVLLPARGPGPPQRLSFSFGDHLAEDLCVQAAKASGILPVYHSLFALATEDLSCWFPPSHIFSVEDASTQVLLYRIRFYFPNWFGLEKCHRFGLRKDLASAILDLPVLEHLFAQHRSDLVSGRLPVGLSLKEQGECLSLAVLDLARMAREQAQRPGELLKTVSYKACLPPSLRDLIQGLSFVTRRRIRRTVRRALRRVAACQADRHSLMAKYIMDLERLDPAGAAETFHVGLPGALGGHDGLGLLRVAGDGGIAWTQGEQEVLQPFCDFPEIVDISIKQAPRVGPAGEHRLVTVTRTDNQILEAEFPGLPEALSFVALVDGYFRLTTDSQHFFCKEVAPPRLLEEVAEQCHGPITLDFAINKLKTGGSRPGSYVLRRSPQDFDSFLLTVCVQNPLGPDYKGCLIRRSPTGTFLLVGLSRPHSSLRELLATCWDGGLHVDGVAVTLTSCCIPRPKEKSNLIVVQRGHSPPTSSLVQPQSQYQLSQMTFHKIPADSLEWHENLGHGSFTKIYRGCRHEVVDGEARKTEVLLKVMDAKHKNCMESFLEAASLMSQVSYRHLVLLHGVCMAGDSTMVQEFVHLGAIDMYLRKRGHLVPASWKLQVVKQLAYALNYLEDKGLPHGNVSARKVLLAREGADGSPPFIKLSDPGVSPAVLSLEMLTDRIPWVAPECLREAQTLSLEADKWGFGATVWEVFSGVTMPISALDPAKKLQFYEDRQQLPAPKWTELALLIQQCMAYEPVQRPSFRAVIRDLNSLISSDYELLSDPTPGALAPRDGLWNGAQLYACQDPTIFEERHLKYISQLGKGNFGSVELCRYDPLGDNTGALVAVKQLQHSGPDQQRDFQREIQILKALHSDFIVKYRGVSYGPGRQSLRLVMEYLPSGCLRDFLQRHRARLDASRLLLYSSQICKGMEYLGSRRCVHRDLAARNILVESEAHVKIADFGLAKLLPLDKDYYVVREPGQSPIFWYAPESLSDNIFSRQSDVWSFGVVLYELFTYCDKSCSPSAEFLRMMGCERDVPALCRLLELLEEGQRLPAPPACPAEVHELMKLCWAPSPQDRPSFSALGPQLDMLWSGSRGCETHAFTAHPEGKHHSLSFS
Procedure, shortened: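 Kinase at 2.5 nM with 10 µM Omnia Y7 peptide and 10 µM (Km app) or 1 mM ATP in 25 mM HEPES pH 7.4, 10 mM MgCl2, 1 mM DTT, 0.01% Triton X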

T2 sequence (P23458 whole entry): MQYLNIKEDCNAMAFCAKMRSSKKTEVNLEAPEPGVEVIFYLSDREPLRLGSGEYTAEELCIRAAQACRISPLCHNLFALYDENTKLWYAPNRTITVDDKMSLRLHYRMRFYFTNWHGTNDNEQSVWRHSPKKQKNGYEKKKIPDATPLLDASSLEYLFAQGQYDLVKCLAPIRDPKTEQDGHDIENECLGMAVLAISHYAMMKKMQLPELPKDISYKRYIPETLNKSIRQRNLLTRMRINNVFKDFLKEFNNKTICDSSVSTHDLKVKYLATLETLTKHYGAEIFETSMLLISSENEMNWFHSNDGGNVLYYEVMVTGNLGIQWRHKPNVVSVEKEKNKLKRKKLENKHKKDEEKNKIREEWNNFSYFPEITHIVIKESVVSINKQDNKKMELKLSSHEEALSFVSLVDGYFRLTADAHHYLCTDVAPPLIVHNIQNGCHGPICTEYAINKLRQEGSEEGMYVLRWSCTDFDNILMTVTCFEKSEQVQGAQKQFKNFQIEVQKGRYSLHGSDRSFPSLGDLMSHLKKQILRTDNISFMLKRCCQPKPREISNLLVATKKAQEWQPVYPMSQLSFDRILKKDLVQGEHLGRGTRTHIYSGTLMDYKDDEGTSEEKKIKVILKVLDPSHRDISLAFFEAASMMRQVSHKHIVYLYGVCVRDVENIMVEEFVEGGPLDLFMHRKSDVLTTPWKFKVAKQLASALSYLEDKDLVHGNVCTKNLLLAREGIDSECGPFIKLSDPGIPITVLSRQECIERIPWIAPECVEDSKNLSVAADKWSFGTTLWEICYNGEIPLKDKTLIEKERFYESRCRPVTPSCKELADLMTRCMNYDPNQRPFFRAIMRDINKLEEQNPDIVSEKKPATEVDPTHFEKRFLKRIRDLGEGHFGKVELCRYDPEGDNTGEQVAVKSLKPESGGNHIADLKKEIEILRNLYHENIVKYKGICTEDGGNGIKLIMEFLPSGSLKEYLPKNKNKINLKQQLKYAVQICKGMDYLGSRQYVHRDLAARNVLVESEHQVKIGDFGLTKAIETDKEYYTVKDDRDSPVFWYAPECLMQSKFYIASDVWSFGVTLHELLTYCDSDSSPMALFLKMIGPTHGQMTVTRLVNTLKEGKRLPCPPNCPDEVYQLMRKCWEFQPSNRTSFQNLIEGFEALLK
T3 sequence (O60674 whole entry): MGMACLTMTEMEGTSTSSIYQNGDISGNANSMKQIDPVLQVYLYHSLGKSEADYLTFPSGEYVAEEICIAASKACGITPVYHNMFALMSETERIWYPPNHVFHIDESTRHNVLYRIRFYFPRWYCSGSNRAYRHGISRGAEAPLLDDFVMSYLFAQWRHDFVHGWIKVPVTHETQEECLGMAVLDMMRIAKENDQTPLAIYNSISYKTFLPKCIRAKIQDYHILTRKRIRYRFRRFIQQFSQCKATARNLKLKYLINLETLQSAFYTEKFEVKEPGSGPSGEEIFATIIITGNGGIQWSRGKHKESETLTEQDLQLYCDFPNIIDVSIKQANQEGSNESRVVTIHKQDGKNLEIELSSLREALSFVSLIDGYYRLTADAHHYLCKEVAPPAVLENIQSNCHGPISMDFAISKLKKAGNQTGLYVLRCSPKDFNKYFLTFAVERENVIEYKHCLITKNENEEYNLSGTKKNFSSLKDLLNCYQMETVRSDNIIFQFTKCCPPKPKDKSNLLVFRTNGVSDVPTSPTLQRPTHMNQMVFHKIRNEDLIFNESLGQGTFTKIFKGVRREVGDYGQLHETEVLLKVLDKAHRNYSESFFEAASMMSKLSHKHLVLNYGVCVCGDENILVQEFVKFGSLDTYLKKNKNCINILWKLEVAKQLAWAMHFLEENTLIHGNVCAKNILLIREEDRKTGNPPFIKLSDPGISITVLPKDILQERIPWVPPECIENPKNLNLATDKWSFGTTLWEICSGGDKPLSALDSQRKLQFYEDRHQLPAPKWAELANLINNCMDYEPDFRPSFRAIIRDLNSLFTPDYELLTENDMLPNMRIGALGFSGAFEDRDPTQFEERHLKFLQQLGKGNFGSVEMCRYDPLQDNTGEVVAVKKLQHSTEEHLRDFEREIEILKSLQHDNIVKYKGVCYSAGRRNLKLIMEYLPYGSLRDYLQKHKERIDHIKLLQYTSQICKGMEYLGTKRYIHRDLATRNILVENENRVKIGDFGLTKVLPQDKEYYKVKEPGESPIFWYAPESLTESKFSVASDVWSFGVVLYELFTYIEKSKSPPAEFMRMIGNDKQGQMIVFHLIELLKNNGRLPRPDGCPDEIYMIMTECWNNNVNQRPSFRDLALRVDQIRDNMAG

For `Cn1cc(-c2cc3nccn3c(-c3cnn(C(CC#N)C4CCCC4)c3)n2)cn1` (centres unmarked) [Example 17, 3-cyclopentyl-3-(4-(7-(1-methyl-1H-pyrazol-4-yl)imidazo[1,2-c]pyrimidin-5-yl)-1H-pyrazol-1-yl)propanenitrile], the IC50 (Human Tyk2 kinase domain) was under 10 nM, the IC50 (JAK1) was 10 to 100 nM and the IC50 (JAK2) was 10 to 100 nM. It also gave an IC50 (JAK3) of over 1000 nM.

`Cn1cc(-c2cc3nccn3c(-c3cnn(C4(CC#N)CN(CCF)C4)c3)n2)cn1` [Example 77, 2-(1-(2-fluoroethyl)-3-(4-(7-(1-methyl-1H-pyrazol-4-yl)imidazo[1,2-c]pyrimidin-5-yl)-1H-pyrazol-1-yl)azetidin-3-yl)acetonitrile] gave an IC50 (Human Tyk2 kinase domain) of under 10 nM, an IC50 (JAK1) of 100 to 1000 nM and an IC50 (JAK2) of 10 to 100 nM. The IC50 (JAK3) was over 1000 nM.

`CN1CCN(CCn2cc(-c3cc4nccn4c(-c4cnn(C(CC#N)C5CC5)c4)n3)cn2)CC1` (centres unmarked) [Example 44, 3-cyclopropyl-3-(4-(7-(1-(2-(4-methylpiperazin-1-yl)ethyl)-1H-pyrazol-4-yl)imidazo[1,2-c]pyrimidin-5-yl)-1H-pyrazol-1-yl)propanenitrile] gave an IC50 (Human Tyk2 kinase domain) of 10 to 100 nM, an IC50 (JAK1) of 100 to 1000 nM and an IC50 (JAK2) of 10 to 100 nM. The IC50 (JAK3) was 100 to 1000 nM.

Work on `N#CCC(C1CC1)n1cc(-c2nc(-c3cnco3)cc3nccn23)cn1` (centres unmarked) [Example 43, 3-cyclopropyl-3-(4-(7-(oxazol-5-yl)imidazo[1,2-c]pyrimidin-5-yl)-1H-pyrazol-1-yl)propanenitrile] yielded an IC50 (Human Tyk2 kinase domain) of 10 to 100 nM, an IC50 (JAK1) of over 1000 nM and an IC50 (JAK2) of 100 to 1000 nM. It also gave an IC50 (JAK3) of over 1000 nM.

`CC(C)n1cc(-c2cc3nccn3c(-c3cnn(C(CC#N)C4CC4)c3)n2)cn1` (centres unmarked) [Example 34, 3-Cyclopropyl-3-(4-(7-(1-isopropyl-1H-pyrazol-4-yl)imidazo[1,2-c]pyrimidin-5-yl)-1H-pyrazol-1-yl)propanenitrile] was tested, and the IC50 (Human Tyk2 kinase domain) was under 10 nM, the IC50 (JAK1) was 100 to 1000 nM and the IC50 (JAK2) was 10 to 100 nM. The IC50 (JAK3) was 100 to 1000 nM.

For `COc1cncc(C(CC#N)n2cc(-c3nc(-c4cnn(C)c4)cc4nccn34)cn2)c1` (centres unmarked) [Example 9, 3-(5-methoxypyridin-3-yl)-3-(4-(7-(1-methyl-1H-pyrazol-4-yl)imidazo[1,2-c]pyrimidin-5-yl)-1H-pyrazol-1-yl)propanenitrile], the IC50 (Human Tyk2 kinase domain) was 10 to 100 nM, the IC50 (JAK1) was 100 to 1000 nM and the IC50 (JAK2) was 10 to 100 nM. The IC50 (JAK3) was over 1000 nM.

Compound `Cn1cc(-c2cc3nccn3c(-c3cnn(C4(CC#N)CNC4)c3)n2)cn1` [Example 62, 2-(3-(4-(7-(1-Methyl-1H-pyrazol-4-yl)imidazo[1,2-c]pyrimidin-5-yl)-1H-pyrazol-1-yl)azetidin-3-yl)acetonitrile hydrochloride] has an IC50 (Human Tyk2 kinase domain) of 100 to 1000 nM, an IC50 (JAK1) of over 1000 nM and an IC50 (JAK2) of over 1000 nM. For the same compound, the IC50 (JAK3) was over 1000 nM.

`Cc1nn(C(CC#N)C2CCCC2)cc1-c1nc(-c2ccc(N3CCOCC3)cc2)cc2nccn12` (centres unmarked) [Example 121, 3-Cyclopentyl-3-(3-methyl-4-(7-(4-morpholinophenyl)imidazo[1,2-c]pyrimidin-5-yl)-1H-pyrazol-1-yl)propanenitrile] showed an IC50 (Human Tyk2 kinase domain) of under 10 nM, an IC50 (JAK1) of 100 to 1000 nM and an IC50 (JAK2) of 10 to 100 nM. For the same compound, the IC50 (JAK3) was over 1000 nM.

`Cn1cc(-c2cc3nccn3c(-c3cnn(C4(CC#N)CN(C(=O)OC(C)(C)C)C4)c3)n2)cn1` [Example 61, Tert-butyl 3-(cyanomethyl)-3-(4-(7-(1-methyl-1H-pyrazol-4-yl)imidazo[1,2-c]pyrimidin-5-yl)-1H-pyrazol-1-yl)azetidine-1-carboxylate] was tested, and the IC50 (Human Tyk2 kinase domain) was 100 to 1000 nM, the IC50 (JAK1) was over 1000 nM and the IC50 (JAK2) was 100 to 1000 nM. For the same compound, the IC50 (JAK3) was over 1000 nM.

In the case of `N#CCC1(n2cc(-c3nc(-c4cnn(C5COC5)c4)cc4nccn34)cn2)CC2(CCC2)C1` [Example 162, 2-(2-(4-(7-(1-(oxetan-3-yl)-1H-pyrazol-4-yl)imidazo[1,2-c]pyrimidin-5-yl)-1H-pyrazol-1-yl)spiro[3.3]heptan-2-yl)acetonitrile], the IC50 (Human Tyk2 kinase domain) is reported as under 10 nM, the IC50 (JAK1) is reported as 100 to 1000 nM and the IC50 (JAK2) is reported as 10 to 100 nM. It also gave an IC50 (JAK3) of 100 to 1000 nM.

Work on `Cn1cc(-c2cc3nccn3c(-c3cnn(C(CC#N)c4cccc(C(F)(F)F)c4)c3)n2)cn1` (centres unmarked) [Example 15, 3-(4-(7-(1-methyl-1H-pyrazol-4-yl)imidazo[1,2-c]pyrimidin-5-yl)-1H-pyrazol-1-yl)-3-(3-(trifiuoromethyl)phenyl)propanenitrile] yielded an IC50 (Human Tyk2 kinase domain) of under 10 nM, an IC50 (JAK1) of 10 to 100 nM and an IC50 (JAK2) of 10 to 100 nM. It also gave an IC50 (JAK3) of 100 to 1000 nM.

`Cn1cc(-c2cc3nccn3c(-c3cnn(C4(CC#N)CC5(CCCCC5)C4)c3)n2)cn1` [Example 151, 2-(2-(4-(7-(1-methyl-1H-pyrazol-4-yl)imidazo[1,2-c]pyrimidin-5-yl)-1H-pyrazol-1-yl)spiro[3.5]nonan-2-yl)acetonitrile] was tested, and the IC50 (Human Tyk2 kinase domain) was under 10 nM, the IC50 (JAK1) was 100 to 1000 nM and the IC50 (JAK2) was 10 to 100 nM. It also gave an IC50 (JAK3) of 100 to 1000 nM.

`COc1ccc(-c2cc3nccn3c(-c3cnn(C4(CC#N)CN(S(=O)(=O)C(F)(F)F)C4)c3)n2)cc1` [Example 158, 2-(3-(4-(7-(4-methoxyphenyl)imidazo[1,2-c]pyrimidin-5-yl)-1H-pyrazol-1-yl)-1-(trifluoromethylsulfonyl)azetidin-3-yl)acetonitrile] gave an IC50 (Human Tyk2 kinase domain) of under 10 nM, an IC50 (JAK1) of under 10 nM and an IC50 (JAK2) of 10 to 100 nM. The IC50 (JAK3) was 100 to 1000 nM.

Compound `N#CCC(C1CC1)n1cc(-c2nc(C(=O)NC3CCCCC3)cc3nccn23)cn1` (centres unmarked) [Example 123, 5-(1-(2-Cyano-1-cyclopropylethyl)-1H-pyrazol-4-yl)-N-cyclohexylimidazo[1,2-c]pyrimidine-7-carboxamide] has an IC50 (Human Tyk2 kinase domain) of 100 to 1000 nM, an IC50 (JAK1) of over 1000 nM and an IC50 (JAK2) of over 1000 nM. For the same compound, the IC50 (JAK3) was over 1000 nM.

For `CN1CCC(CC#N)(n2cc(-c3nc(-c4cnn(C)c4)cc4nccn34)cn2)CC1` [Example 28, 2-(1-methyl-4-(4-(7-(1-methyl-1H-pyrazol-4-yl)imidazo[1,2-c]pyrimidin-5-yl)-1H-pyrazol-1-yl)piperidin-4-yl)acetonitrile], the IC50 (Human Tyk2 kinase domain) was 10 to 100 nM, the IC50 (JAK1) was over 1000 nM and the IC50 (JAK2) was 100 to 1000 nM. For the same compound, the IC50 (JAK3) was over 1000 nM.

Compound `Cn1cc(-c2cc3nccn3c(-c3ccn(C4(CC#N)CNC4)n3)n2)cn1` [Example 130, 2-(3-(3-(7-(1-Methyl-1H-pyrazol-4-yl)imidazo[1,2-c]pyrimidin-5-yl)-1H-pyrazol-1-yl)azetidin-3-yl)acetonitrile hydrochloride] has an IC50 (Human Tyk2 kinase domain) of 100 to 1000 nM, an IC50 (JAK1) of over 1000 nM and an IC50 (JAK2) of 100 to 1000 nM. The IC50 (JAK3) was over 1000 nM.

In the case of `N#CCC(C1CC1)n1cc(-c2nc(-c3cnn(C4COC4)c3)cc3nccn23)cn1` (centres unmarked) [Example 38, 3-Cyclopropyl-3-(4-(7-(1-(oxetan-3-yl)-1H-pyrazol-4-yl)imidazo[1,2-c]pyrimidin-5-yl)-1H-pyrazol-1-yl)propanenitrile], the IC50 (Human Tyk2 kinase domain) is reported as under 10 nM, the IC50 (JAK1) is reported as 100 to 1000 nM and the IC50 (JAK2) is reported as 10 to 100 nM. The IC50 (JAK3) was 100 to 1000 nM.
